# ChEMBL document CHEMBL3045072, “Anti-tyrosinase, antioxidant and antimicrobial activities of hydroxycinnamoylamides” (Med Chem Res, 2013)
# Calls of active or inactive are those of the source. No cut-off for these calls is given here.
# Legend:
# [1] = system: Radical scavenging activity; test: Antioxidant activity assessed as DPPH radical scavenging activity at 1.8 mM after 10 min; format: functional
# [2] = system: Radical scavenging activity; test: Antioxidant activity assessed as DPPH radical scavenging activity at 0.9 mM after 10 min; format: functional
# [3] = Inhibition of autoxidation of pure triacylglycerols of sunflower oil at 1 mM by iodometric analysis; format: toxicity; conditions: 1000 µM
# [4] = system: Radical scavenging activity; test: Antioxidant activity assessed as DPPH radical scavenging activity at 3.6 mM after 10 min; format: functional
# [5] = system: Radical scavenging activity; test: Antioxidant activity assessed as DPPH radical scavenging activity at 1.8 mM after 20 min; format: functional
# [6] = system: Radical scavenging activity; test: Antioxidant activity assessed as DPPH radical scavenging activity at 3.6 mM after 20 min; format: functional
# [7] = system: Radical scavenging activity; test: Antioxidant activity assessed as DPPH radical scavenging activity at 0.9 mM after 20 min; format: functional
# [8] = target: T1, Tyrosinase (Agaricus bisporus) (UniProt O42713); test: Inhibition of monophenolase activity of mushroom tyrosinase using L-tyrosine as substrate after 30 min by dopachrome method
# T1 sequence (whole entry): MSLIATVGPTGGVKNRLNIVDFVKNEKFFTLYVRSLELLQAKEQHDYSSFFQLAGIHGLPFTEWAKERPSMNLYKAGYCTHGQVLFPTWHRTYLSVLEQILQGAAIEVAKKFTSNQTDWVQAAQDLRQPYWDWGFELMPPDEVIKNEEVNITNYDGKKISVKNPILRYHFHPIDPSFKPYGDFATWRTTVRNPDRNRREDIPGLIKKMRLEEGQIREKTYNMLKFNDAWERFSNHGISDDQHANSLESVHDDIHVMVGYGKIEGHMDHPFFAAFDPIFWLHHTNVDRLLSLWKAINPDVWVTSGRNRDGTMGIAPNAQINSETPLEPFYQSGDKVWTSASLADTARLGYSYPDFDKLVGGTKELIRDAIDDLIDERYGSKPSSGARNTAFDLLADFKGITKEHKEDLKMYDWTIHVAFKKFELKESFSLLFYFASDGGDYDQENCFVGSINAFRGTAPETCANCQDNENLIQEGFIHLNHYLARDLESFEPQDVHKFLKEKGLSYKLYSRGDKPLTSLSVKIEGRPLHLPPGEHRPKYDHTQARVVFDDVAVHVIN
# [9] = system: Staphylococcus aureus; test: Antimicrobial activity against Staphylococcus aureus 209 assessed as growth inhibition after 24 hr by serial dilution method; format: functional; conditions: Staphylococcus aureus, 209, 24 h
# [10] = system: Streptococcus pyogenes; test: Antimicrobial activity against Streptococcus pyogenes 10535 assessed as growth inhibition after 24 hr by serial dilution method; format: functional; conditions: Streptococcus pyogenes, 10535, 24 h
SMILES,Activity [1] [%],Activity [2] [%],inhibition (INH) [3],Activity [4] [%],Activity [5] [%],Activity [6] [%],Activity [7] [%],inhibition [8],MIC [9] [µg/mL],MIC [10] [µg/mL]
COC(=O)[C@H](Cc1ccc(O)c(O)c1)NC(=O)/C=C/c1cc(OC)c(O)c(OC)c1,43.9,23.8,Active,80.9,45.8,82.8,25.4,,,
O=C(/C=C/c1ccc(O)cc1)NCCc1ccc(O)cc1,,,,,,,,Active,,
COc1cc(/C=C/C(=O)NCCc2ccc(O)cc2)ccc1O [N-TRANS-FERULOYL TYRAMINE],,,,,,,,,62.5,125
O=C(/C=C/c1ccc(O)cc1)NCCc1ccc(O)c(O)c1,,,,,,,,Active,,
COC(=O)[C@H](Cc1ccc(O)c(O)c1)NC(=O)/C=C/c1ccc(O)c(OC)c1,44.8,24.3,,83.8,50.6,87,28.5,,125,
NC[C@H]1O[C@H](O[C@H]2[C@H](O)[C@@H](O[C@H]3O[C@H](CO)[C@@H](O)[C@H](N)[C@H]3O)[C@H](N)C[C@@H]2N)[C@H](N)C[C@@H]1O [TOBRAMYCIN],,,,,,,,,15.6,7.81
COC(=O)[C@H](Cc1ccccc1)NC(=O)/C=C/c1ccccc1,2.39,2,,2.18,2.6,2.58,2.52,,,
COc1cc(/C=C/C(=O)NCCc2ccc(O)cc2)cc(OC)c1O [TRANS-N-SINAPOYLTYRAMINE],,,Active,,,,,,62.5,62.5
COC(=O)[C@H](Cc1ccc(O)cc1)NC(=O)/C=C/c1ccc(O)cc1,1.04,0.64,,1.44,1.42,1.88,0.71,Active,,
COC(=O)[C@H](Cc1ccc(O)c(O)c1)NC(=O)/C=C/c1ccccc1 [N-CINNAMOYL-DOPA METHYL ESTER],45.5,24.4,Active,85,48.4,88.1,26.6,,,
COC(=O)[C@H](Cc1ccc(O)cc1)NC(=O)/C=C/c1cc(OC)c(O)c(OC)c1,23.1,14.2,,43,25,45.3,15.6,,125,250
COc1cc(/C=C/C(=O)N[C@@H](Cc2ccccc2)C(=O)OC(C)(C)C)cc(OC)c1O,25,13.7,,46.8,28.2,50.6,16.7,,,
COC(=O)[C@H](Cc1c[nH]c2ccccc12)NC(=O)/C=C/c1ccc(O)cc1,1.69,1.92,,2.42,2.37,2.88,2.13,,,
COc1cc(/C=C/C(=O)NCCc2c[nH]c3ccccc23)cc(OC)c1O,,,,,,,,,250,62.5
COc1cc(/C=C/C(=O)NCCc2ccc(O)c(O)c2)ccc1O [N-TRANS-FERULOYLDOPAMINE],,,,,,,,,62.5,125
O=C(O)/C=C/c1ccccc1 [CINNAMIC ACID],0.32,0.3,Not Active,0.32,0.35,0.35,0.32,,,
COc1cc(/C=C/C(=O)O)ccc1O [FERULATE],21,12.6,Active,36.7,25.1,44.3,13.8,,125,125
COC(=O)[C@H](Cc1ccc(O)cc1)NC(=O)/C=C/c1ccc(O)c(O)c1,51,27.4,,89.6,52.5,90.2,28.7,,,

SMILES,Activity [1] [%],Activity [2] [%],inhibition (INH) [3],Activity [4] [%],Activity [5] [%],Activity [6] [%],Activity [7] [%],inhibition [8],MIC [9] [µg/mL],MIC [10] [µg/mL]
COC(=O)[C@H](Cc1ccc(O)cc1)NC(=O)/C=C/c1ccccc1,2.05,1.74,,2.12,2.3,2.57,2.12,,,
COC(=O)[C@H](Cc1ccc(O)cc1)NC(=O)/C=C/c1ccc(O)c(OC)c1,13.7,7.04,,24.8,16.2,29.2,8.79,,15,
COc1cc(/C=C/C(=O)O)cc(OC)c1O [SINAPINATE],26.5,16.1,Active,69,31.9,69.6,17.2,,125,125
Cc1c(C)c2c(c(C)c1O)CCC(C)(CCCC(C)CCCC(C)CCCC(C)C)O2 (racemic),40.8,23.2,,62.9,46.8,73.3,24.8,,,
COC(=O)[C@H](Cc1ccc(O)c(O)c1)NC(=O)/C=C/c1ccc(O)cc1,33.3,18,Active,64.4,34.8,67.1,19.1,Active,,
COC(=O)[C@H](Cc1c[nH]c2ccccc12)NC(=O)/C=C/c1ccc(O)c(OC)c1,14.5,7.96,,26.4,17.4,30.9,9.76,,,
COC(=O)[C@H](Cc1c[nH]c2ccccc12)NC(=O)/C=C/c1ccccc1,1.2,0.79,,1.18,1.41,1.48,0.69,,,
O=c1c(O)c(-c2ccc(O)c(O)c2)oc2cc(O)cc(O)c12,46.7,40.4,,76,58.4,78,45.2,,,
O=C(O)/C=C/c1ccc(O)c(O)c1 [CAFFEIC ACID],62.1,33.5,Active,88,64.3,91.8,34.1,,125,125
COC(=O)[C@H](Cc1ccc(O)c(O)c1)NC(=O)/C=C/c1ccc(O)c(O)c1 [N-CAFFEOYL-DOPA METHYL ESTER],82.5,44.8,Active,88.7,86,88.8,50.5,,,
Oc1ccc(O)cc1,,,,,,,,Active,,
COC(=O)[C@H](Cc1c[nH]c2ccccc12)NC(=O)/C=C/c1cc(OC)c(O)c(OC)c1,26,13.7,,48.1,27.3,49.9,14.6,,,250
COc1cc(/C=C/C(=O)N[C@@H](Cc2ccccc2)C(=O)OC(C)(C)C)ccc1O,19.5,10.9,,30.4,23.6,36.9,13.5,,,
COC(=O)[C@H](Cc1c[nH]c2ccccc12)NC(=O)/C=C/c1ccc(O)c(O)c1,44.6,27.1,Active,80.1,50.4,87.9,28.7,,,250
COC(=O)[C@H](Cc1ccccc1)NC(=O)/C=C/c1ccc(O)c(O)c1 [N-CAFFEOYL-PHENYLALANINE METHYL ESTER],53.5,28.8,Active,90.3,54.6,90.5,29.7,,,
O=C(/C=C/c1ccc(O)c(O)c1)NCCc1c[nH]c2ccccc12,,,,,,,,,125,62.5
CC(C)(C)OC(=O)[C@H](Cc1ccccc1)NC(=O)/C=C/c1ccc(O)cc1,1.89,1.97,,2.46,2.23,2.92,2.3,,,
O=C(O)/C=C/c1ccc(O)cc1 [COUMARIC ACID],3.7,2.1,Not Active,4.5,4.7,6.1,2.9,Active,,
